Experimental data as given in US9446015B2, “Quinone based nitric oxide donating compounds for ophthalmic use” (NICOX SCIENCE IRELAND, priority 2012, dated 2016).
Like-named read-outs stand apart in the source and are kept apart here.

How the values were obtained:
[1] = tested on: lipidic peroxidation of membrane lipids in rat hepatocytes (hepatic microsomal membranes); assay: In vitro antioxidant activity (TBARS test); type: biochemical; details: read-out: Antioxidant activity IC50 μM (CL 95%)
Procedure: The antioxidant properties of compounds (6) (disclosed in example 1) and compound (23) (disclosed in example 19) and reference antioxidant compounds were assessed after NADPH-induced lipidic peroxidation of membrane lipids in rat hepatocytes using the detection of 2-thiobarbituric acid reactive substances (TBARS) by visible spectroscopy.
Hepatic microsomal membranes from male Wistar rats (200-250 g) were prepared by differential centrifugation (8000 g, 20 min; 120000 g, 1 h) in a HEPES/sucrose buffer (10 mM, 250 mM, pH 7.4) and stored at −80° C. Incubation was performed at 37° C. in a Tris-HCl/KCl (100 mM/150 mM, pH 7.4) containing microsomal membranes (2 mg prot/mL), sodium ascorbate (100 μM), and DMSO solutions of the tested compounds. Lipid peroxidation was initiated by adding ADP-FeCl3 and NADPH (Method A) or 2.5 μM FeSO4 (Method B) (as described by Boschi D. et al., J. Med. Chem. 2006, 49:2886-2897). Aliquots were taken from the incubation mixture at 5, 15, and 30 min and treated with trichloroacetic acid (TCA) 10% w/v. Lipid peroxidation was assessed by spectrophotometric (543 nm) determination of the TBARS consisting mainly of malondialdehyde (MDA). TBARS concentrations (expressed in nmol/mg protein) were obtained by interpolation with a MDA standard curve. The antioxidant activity of tested compounds was evaluated as the percent inhibition of TBARS production with respect to control samples, using the values obtained after 30 min of incubation. IC50 values were calculated by nonlinear regression analysis.

[2] = tested on: hypertonic saline-induced IOP increase in rabbits; assay: IOP lowering activity in hypertonic saline-induced IOP increase in rabbits; type: in vivo, New Zealand White rabbits
Source text: Intraocular pressure (IOP) lowering activity in hypertonic saline-induced IOP increase in rabbits.
This animal model of elevated IOP was used for assessing the intraocular pressure (IOP) lowering activities of some compounds of the invention, timolol, dorzolamide and 5-isosorbide mononitrate.
• compounds (6), (20) and (25) • timolol and dorzolamide that are drugs commonly used for the treatment of glaucoma and ocular hypertension. • Isosorbide mononitrate (5-ISMN) that is a commonly used nitric oxide donor drug.
(§1) Timolol, dorzolamide and 5-ISMN were tested as reference compounds. Adults male New Zealand White rabbits weighting 1.8-2.0 Kg were used in the experiments.
IOP was measured using a Tono-Pen XL prior to hypertonic saline injection (basal) and at 30, 60, 120 and 240 min thereafter. Vehicle (5% cremophor-EL; 0.3% DMSO; 0.2 mg/ml BAK in PBS pH 6.0) and all the tested compounds dissolved in the vehicle were instilled as eye drops immediately after hypertonic saline injection. Eyes were randomly assigned to different treatment groups. Vehicle and the tested compounds were directly instilled into the conjunctiva pocket at the desired doses. One drop of 0.4% oxybuprocaine hydrochloride (Novesine, Sandoz) was instilled in each eye immediately before each set of pressure measurements.
Results are reported in Table 6, the ocular hypotensive activities of the tested compounds are expressed as IOP change at 60 and 120 minutes after topical administration versus vehicle and versus the basal IOP.

[3] = tested on: isolated aortas from rats; assay: Ex vivo tolerance evaluation, vascular response of isolated rat aortas; type: cell-based; details: for EC50 at 30 mg/kg: Rattus norvegicus, read-out: EC50 (μM), vascular response to 5-ISMN
Procedure: (§2) Thoracic aortas from male New Zealand rabbits or male Sprague Dawley (SD) were used. The aortas were placed immediately in Krebs-HEPES buffer (pH 7.4; composition mM: NaCl 130.0, KCl 3.7, NaHCO3 14.9, KH2PO4 1.2, MgSO4.7H2O 1.2, Glucose 11.0, HEPES 10.0, CaCl2.2H2O 1.6). Connective tissue was removed and aortas were cut into ring segments (4-5 mm in length). Each ring was placed in a 5 mL tissue bath filled with Krebs-HEPES buffer (37° C.) aerated with 95% O2 and 5% CO2 and was attached to a force transducer (Grass FT03), connected to a BIOPAC MP150 System for measurement of the isometric tension. Preparations were allowed to equilibrate for 1 h at a resting tension of 2 g for rabbit aortas and 1 g for rat aortas with changes of the buffer every 15 min. Then the rings were stimulated by exposure to 90 mM KCl (3 times) with intervening washings.
(§3) Rat aorta. After equilibration, rat aortas were precontracted with KCl (90 mM) and, when the contraction was stable, a cumulative concentration-response curve to acetylcholine (ACh, 0.01-100 μM) was added. After washout, the rings were precontracted again with KCl (90 mM). When a steady-state level of contraction was obtained, a cumulative concentration-response curve to the tested compounds (0.01-100 μM) was obtained.
(§4) Data analysis. Results are given as mean±SEM. Vascular responses are expressed as percentage relaxation and plotted vs concentration. The sensitivity of isolated aorta to different vasodilators is expressed as the concentration that elicited 50% of the maximal responses (EC50). Responses are quantified in terms of EC50 and Emax (maximal vasodilating effect) values, obtained from the concentration-response curve by nonlinear curve fitting, using GraphPad software.
Tolerance to nitrate was further investigated assessing the vascular effects of Compound (6) following repeated treatment compared with 5-ISMN. The vascular response to the compound itself was assessed on isolated aortas from rats orally treated for 5 days with Compound (6) (100 mg/kg). The vascular response was performed as described in Example 6.
Vascular responses were performed 1 h (ISMN) or 3 h (Compound (6)) after the last administration, the concentrations of tested compound that elicited the 50% of the maximal responses (EC50) are shown in Table 4.

[4] = tested on: rat L-NAME-induced hypertension; assay: In vivo tolerance evaluation, L-NAME-induced hypertension after 5-day oral treatment; details: 5-ISMN 30 mg/kg; for Delta vs basal (mmHg): peak effect 1 hour
Procedure: (§5) Fasted male SD rats (250-300 g, n=3-5 per group), obtained from Harlan Italy (Correzzana, Milan, Italy) were orally treated with tested compounds or vehicle (DMSO:Methocel 1% 2/98 v/v) in a total volume of 4 ml/kg by gavage. At each time point (1, 3, 6 and 24 h) animals were deeply anesthetized with Zoletil® 100 (3 mg/kg), given intramuscularly. Thereafter, a pressure catheter (Samba Sensors, Harvard Apparatus, UK) was introduced into the common carotid artery for central blood pressure measurement. Pressure transducer was connected to a personal computer, in order to allow real time monitor of the pressure tracing. After 10 minutes of basal recording, L-NAME (50 mg/kg) was administered intraperitoneally and the effect on SBP monitored. When the SBP stabilized (5 minutes without variations) the recording was stopped. To further confirm that functional activity was NO-dependent, at each time point blood ^15N-nitrite levels were measured following the procedure described in Example 12.
To investigate whether the compound (6) induced nitrate tolerance, as observed for most of the drugs belonging to the nitrate class, the L-NAME-induced hypertension rat model described in Example 7 was performed following a repeated oral treatment. Rats were orally treated for 5 days with vehicle, compound (6) (100 mg/kg) or 5-ISMN (30 mg/kg). […] The experiments were performed at the peak effect (1 hour for 5-ISMN and 3 hours for Compound (6)), results are reported in Table 3.

[5] = tested on: rat L-NAME-induced hypertension; assay: Systolic blood pressure in rat L-NAME-induced hypertension, single oral dose; type: in vivo; details: for Delta vs basal (mmHg), systolic blood pressure: 5-ISMN 30 mg/kg oral
Procedure: To assess the in vivo NO-dependent activity, Compound (6) was evaluated for systolic blood pressure (SBP) reduction efficacy in a rat model of NO-deprivation induced by L-NAME and compared with 5-ISMN.
as §5

[6] = tested on: endothelial-dependent vasodilation of rat aortas; assay: Endothelial dysfunction evaluation, vascular response to acetylcholine; type: cell-based; details: 5-ISMN 30 mg/kg; for Emax at 30 mg/kg: Rattus norvegicus, read-out: % relaxation (Emax), response to acetylcholine
Procedure: as §2, §3, §4
Endothelial-dependent vasodilation (vascular response to acetylcholine, ACh) was assessed following 5-day treatment with Compound (6) (100 mg/kg) or 5-ISMN (30 mg/kg). A relaxant response to ACh indicated the presence of a functional endothelium. The vascular response was performed as described in Example 6.

[7] = tested on: ocular normotensive New Zealand rabbits; assay: IOP lowering activity in ocular normotensive New Zealand rabbits; type: in vivo, New Zealand White rabbits
Procedure: Intraocular pressure (IOP) lowering activity in ocular normotensive New Zealand rabbits.
• compound (6) • timolol that is a drug commonly used for the treatment of glaucoma and ocular hypertension. • Isosorbide mononitrate (5-ISMN) that is a commonly used nitric oxide donor drug.
as §1
IOP was measured using a pneumatonometer 30 CLASSIC™ before topical application (basal) and a different time point (30, 60, 120, 240 and 300 min) thereafter. Vehicle (5% cremophor-EL; 0.3% DMSO; 0.2 mg/ml BAK in PBS pH 6.0) or tested compounds dissolved in the vehicle were instilled as eye drops into the conjunctiva pocket. Eyes were randomly assigned to different treatment groups. One drop of 0.4% oxybuprocaine hydrochloride (Novesine, Sandoz) was instilled in each eye immediately before each set of pressure measurements.
The test results are reported in Table 7, the ocular hypotensive activity is expressed as IOP changes at 30, 60, 120 and 300 minutes after topical administration versus vehicle and versus IOP at basal.

[8] = 60 min after topical administration
[9] = 120 min after topical administration
[10] = 30 min after topical administration
[11] = 300 min after topical administration
[12] = Method A (ADP-FeCl3 and NADPH), inhibition of TBARS production after 30 min

O=C(O)/C=C/c1ccc(O)c(O)c1 [Caffeic acid]
IC50 ([1]; Method B (2.5 μM FeSO4)): 33 µM

O=[N+]([O-])O[C@@H]1CO[C@H]2[C@@H]1OC[C@@H]2O [Compound 5-ISMN, isosorbide-5-mononitrate]
ΔΔ (mmHg), IOP change versus vehicle and versus basal IOP [2, 8]: −0.7 ± 2.9 mmHg
ΔΔ (mmHg), IOP change versus vehicle and versus basal IOP [2, 9]: −6.6 ± 1.8 mmHg
vascular sensitivity of aortas of treated animals to the compound itself versus vehicle/control arteries ([3]; 5-day oral treatment, 5-ISMN 30 mg/kg, Compound (6) 100 mg/kg): showed a reduced vascular response
EC50 at 30 mg/kg ([3]; 1 h): 20 ± 0.6 µM
EC50 at 30 mg/kg [3]: 127 ± 48 µM
efficacy in preventing L-NAME-induced hypertension after 5-day oral treatment ([4]; compound (6) 100 mg/kg): did not maintain its efficacy
Delta vs basal (mmHg) ([4]; acute): 10.5 ± 6.1 mmHg
Delta vs basal (mmHg) ([4]; repeated (5 days oral)): 88 ± 11.5 mmHg
Delta vs basal (mmHg), systolic blood pressure ([5]; 1 hour): 10.5 ± 6.1 mmHg
Delta vs basal (mmHg), systolic blood pressure ([5]; 3 hours): 6.5 ± 2.4 mmHg
Delta vs basal (mmHg), systolic blood pressure ([5]; 6 hours): 51.2 ± 5.7 mmHg
Delta vs basal (mmHg), systolic blood pressure ([5]; 24 hours): 83 ± 9 mmHg
time over which L-NAME induced hypertension was counteracted after treatment ([5]; single oral administration, 5-ISMN 30 mg/kg, Compound (6) 100 mg/kg): 3 h
effect on endothelial-dependent vasorelaxation (response to ACh) ([6]; 5-day treatment, Compound (6) 100 mg/kg): caused a reduced response to Ach
Emax at 30 mg/kg ([6]; 120 h, repeated (5-day treatment)): 78.2 ± 9.2%
Emax at 30 mg/kg ([6]; acute): 92.7 ± 4.3%
ΔΔ (mmHg), IOP change versus vehicle and versus IOP at basal [7, 10]: −1.5 ± 0.3 mmHg
ΔΔ (mmHg), IOP change versus vehicle and versus IOP at basal [7, 8]: −1.7 ± 0.4 mmHg
ΔΔ (mmHg), IOP change versus vehicle and versus IOP at basal [7, 9]: −0.6 ± 0.4 mmHg
ΔΔ (mmHg), IOP change versus vehicle and versus IOP at basal [7, 11]: −0.8 ± 0.4 mmHg

COC1=C(OC)C(=O)C(CCCOCCO[N+](=O)[O-])=C(C)C1=O [Compound (20), 2-(3-(4,5-dimethoxy-2-methyl-3,6-dioxocyclohexa-1,4-dienyl)propoxy)ethyl nitrate]
ΔΔ (mmHg), IOP change versus vehicle and versus basal IOP [2, 8]: −18.9 ± 2.4 mmHg
ΔΔ (mmHg), IOP change versus vehicle and versus basal IOP [2, 9]: −9.1 ± 1.6 mmHg

CC1=C(CCCCCCO[N+](=O)[O-])C(=O)c2ccccc2C1=O [Compound (23), 6-(3-methyl-1,4-dioxo-1,4-dihydronaphthalen-2-yl) hexyl nitrate]
IC50 [1, 12]: 1.4 µM

CC1=C(CCCOCCCO[N+](=O)[O-])C(=O)c2ccccc2C1=O [Compound (25), 3-(3-(3-methyl-1,4-dioxo-1,4-dihydronaphthalen-2-yl)propoxy)propyl nitrate]
ΔΔ (mmHg), IOP change versus vehicle and versus basal IOP [2, 8]: −11.5 ± 2.8 mmHg
ΔΔ (mmHg), IOP change versus vehicle and versus basal IOP [2, 9]: −10.2 ± 1.3 mmHg

CCN[C@H]1C[C@H](C)S(=O)(=O)c2sc(S(N)(=O)=O)cc21 [Dorzolamide, dorzolamide]
ΔΔ (mmHg), IOP change versus vehicle and versus basal IOP [2, 8]: −6.9 ± 2.1 mmHg
ΔΔ (mmHg), IOP change versus vehicle and versus basal IOP [2, 9]: −6.7 ± 1.7 mmHg

COC1=C(OC)C(=O)C(CCCCCCCCCCO)=C(C)C1=O [Idebenone]
IC50 [1, 12]: 1.6 µM

CC(C)(C)NC[C@H](O)COc1nsnc1N1CCOCC1 [Timolol, timolol]
ΔΔ (mmHg), IOP change versus vehicle and versus basal IOP [2, 8]: −5.7 ± 1.4 mmHg
ΔΔ (mmHg), IOP change versus vehicle and versus basal IOP [2, 9]: −8.4 ± 1.2 mmHg
ΔΔ (mmHg), IOP change versus vehicle and versus IOP at basal [7, 10]: −0.4 ± 0.4 mmHg
ΔΔ (mmHg), IOP change versus vehicle and versus IOP at basal [7, 8]: −0.7 ± 0.4 mmHg
ΔΔ (mmHg), IOP change versus vehicle and versus IOP at basal [7, 9]: −0.9 ± 0.4 mmHg
ΔΔ (mmHg), IOP change versus vehicle and versus IOP at basal [7, 11]: −0.05 ± 0.4 mmHg
